Reference: ChEMBL document CHEMBL1141527, “Design, synthesis, and thrombin-inhibitory activity of pyridin-2-ones as P2/P3 core motifs” (Bioorg Med Chem Lett, 2008)

Assays:
[1] = Inhibition of trypsin
Prothrombin = Prothrombin (Homo sapiens, UniProt P00734); assay: Inhibition of thrombin
[2] = Selectivity ratio of IC50 for trypsin to IC50 for thrombin

Cc1ccnc(CNC(=O)Cc2c(C)ccn(NS(=O)(=O)c3c(C)cccc3Cl)c2=O)c1F
IC50 [1]: > 44.4 µM
IC50 (Prothrombin): > 44.4 µM

Cc1ccn(NS(=O)(=O)Cc2ccccc2)c(=O)c1CC(=O)NCc1ccc(C(=N)N)cc1
Ratio IC50 [2]: 7.9
IC50 [1]: 15.2 µM
IC50 (Prothrombin): 1.92 µM

Cc1ccn(NS(=O)(=O)c2cccc3ccccc23)c(=O)c1CC(=O)NCc1ccc(C(=N)N)cc1
Ratio IC50 [2]: 14
IC50 [1]: 17.1 µM
IC50 (Prothrombin): 1.24 µM

COc1cc(C)ccc1S(=O)(=O)Nn1ccc(C)c(CC(=O)NCc2ccc(C(=N)N)cc2)c1=O
Ratio IC50 [2]: 1.7
IC50 [1]: 2.02 µM
IC50 (Prothrombin): 1.18 µM

Cc1ccn(NCCc2ccccc2)c(=O)c1CC(=O)NCc1ccc(C(=N)N)cc1
Ratio IC50 [2]: 16
IC50 [1]: 1.42 µM
IC50 (Prothrombin): 0.091 µM

Cc1cc(-c2ccc(S(=O)(=O)Nn3ccc(C)c(CC(=O)NCc4ccc(N)nc4)c3=O)cc2)c(C)s1
IC50 (Prothrombin): > 44.4 µM

CCCc1ccc(S(=O)(=O)Nn2ccc(C)c(CC(=O)NCc3nccc(C)c3F)c2=O)cc1
IC50 (Prothrombin): > 44.4 µM

Cc1ccn(NS(=O)(=O)c2ccc(Cl)c(Cl)c2)c(=O)c1CC(=O)NCc1ccc(C(=N)N)cc1
Ratio IC50 [2]: 12
IC50 [1]: 10.3 µM
IC50 (Prothrombin): 0.885 µM

Cc1ccn(NCS(=O)(=O)c2ccc(Cl)cc2)c(=O)c1CC(=O)NCc1ccnc(N)c1
IC50 (Prothrombin): > 44.4 µM

Cc1ccn(NS(=O)(=O)c2ccccc2)c(=O)c1CC(=O)NCc1ccc(C(=N)N)cc1
Ratio IC50 [2]: 2.3
IC50 [1]: 5.77 µM
IC50 (Prothrombin): 2.47 µM

Cc1ccnc(CNC(=O)Cc2c(C)ccn(NS(=O)(=O)c3ccccc3S(C)(=O)=O)c2=O)c1F
IC50 (Prothrombin): > 44.4 µM

COc1cc(Cl)ccc1S(=O)(=O)Nn1ccc(C)c(CC(=O)NCc2ccc(C(=N)N)cc2)c1=O
Ratio IC50 [2]: 13
IC50 [1]: 4.13 µM
IC50 (Prothrombin): 0.307 µM

Cc1ccn(/N=C/Cc2cccc(C(F)(F)F)c2)c(=O)c1CC(=O)NCc1ccc(N)nc1
Ratio IC50 [2]: > 16
IC50 [1]: > 44.4 µM
IC50 (Prothrombin): 2.71 µM

Cc1ccnc(CNC(=O)Cc2c(C)ccn(NCCc3cc(Cl)ccc3F)c2=O)c1F
IC50 (Prothrombin): > 44.4 µM

COc1ccc(S(=O)(=O)Nn2ccc(C)c(CC(=O)NCc3ccc(N)nc3)c2=O)c(OC)c1
IC50 [1]: > 4.4 µM
IC50 (Prothrombin): > 44.4 µM

COc1cccc(S(=O)(=O)Nn2ccc(C)c(CC(=O)NCc3ccc(C(=N)N)cc3)c2=O)c1
Ratio IC50 [2]: 15
IC50 [1]: 15.6 µM
IC50 (Prothrombin): 1.05 µM

Cc1ccc(C)c(S(=O)(=O)Nn2ccc(C)c(CC(=O)NCc3ccc(C(=N)N)cc3)c2=O)c1
Ratio IC50 [2]: 12
IC50 [1]: 7.13 µM
IC50 (Prothrombin): 0.578 µM

COc1ccc(S(=O)(=O)Nn2ccc(C)c(CC(=O)NCc3ccc(C(=N)N)cc3)c2=O)cc1
Ratio IC50 [2]: 1.8
IC50 [1]: 3.41 µM
IC50 (Prothrombin): 1.85 µM

Cc1ccc(C)c(CCNn2ccc(C)c(CC(=O)NCc3ccc(C(=N)N)cc3)c2=O)c1
Ratio IC50 [2]: 23
IC50 [1]: 2.14 µM

Cc1ccccc1CCNn1ccc(C)c(CC(=O)NCc2ccc(C(=N)N)cc2)c1=O
Ratio IC50 [2]: 42
IC50 [1]: 0.963 µM
IC50 (Prothrombin): 0.023 µM

CCc1ccc(S(=O)(=O)Nn2ccc(C)c(CC(=O)NCc3ccnc(N)c3)c2=O)cc1
IC50 (Prothrombin): > 44.4 µM
